“Also recorded” adds a separate entry of the source.
How the values were obtained:
[1] = Hygroscopicity of the active pharmaceutical ingredient; type: physicochemical
[2] = Solubility / biopharmaceutical classification system class; type: physicochemical

hygroscopicity [1]: slightly hygroscopic
Compound: C=CC(=O)N1CCC([C@@H]2CCNc3c(C(N)=O)c(-c4ccc(Oc5ccccc5)cc4)nn32)CC1 [Zanubrutinib, (S)-7-[4-(1-acryloylpiperidine)]-2-(4-phenoxyphenyl)-4,5,6,7-tetrahydropyrazolo[1,5-a] pyrimidine-3-carboxamide]
biopharmaceutical classification system class [2]: class II (low solubility, and high permeability) | solubility ([2]; active pharmaceutical ingredient): poor solubility; also recorded: pH-dependent solubility
